Laboratory results taken from patent EP1275386A1, “SOLID […] IMPROVED ABSORBABILITY” (FUJISAWA PHARMACEUTICAL CO., LTD., priority 2000, dated 2001).

Assays:
[1] = Test on solubility of active component in water (Test Example 1); assay type: physicochemical; conditions: 15mg equivalent of Active Component 1 in 7.5 mL of water at 37 °C, agitated with a stirrer; dihydrate
Excerpt: Compared was the solubility of the solid dispersions obtained in Examples 2, 3 and 5 (referred to as "Preparation 2," "Preparation 3" and "Preparation 5," respectively, hereinafter) containing as an active ingredient N-(3,4-dimethoxybenzyl)-2-[(trans-4-formamidocyclohexyl)amino]-5-nitrobenzamide dihydrate (referred to as "Active Component 1" hereinafter), the amorphous Active Component 1 obtained in Comparative Example 1 and the crystal Active Component 1 obtained in Production Example 1. The test was performed by adding Preparations 2, 3 and 5, the amorphous Active Component 1 and the crystal Active Component 1 each containing 15mg equivalent of Active Component 1 to 7.5 mL of water heated to 37 °C, agitating the resulting mixtures with a stirrer and measuring the concentration of Active Component 1 in the solutions. The results are shown in Fig. 1, which is a graphical representation showing the change with time of the solubility in water of Preparations 2, 3 and 5, the amorphous Active Component 1 and the crystal Active Component 1. […]

[2] = Test on crystal state of Active Component 1 by DSC, storage at 70 °C for 7 days (Test Example 2); assay type: physicochemical
Experimental: Preparations 2 and 3 containing Active Component 1 and the amorphous Active Component 1 after being stored at 70 °C for 7 days were tested on the crystal state of Active Component 1 by differential scanning calorimetry (DSC for short hereinafter). […]

## COc1ccc(CNC(=O)c2cc([N+](=O)[O-])ccc2N[C@H]2CC[C@H](NC=O)CC2)cc1OC.O.O [Amorphous Active Component 1, N-(3,4-dimethoxybenzyl)-2-[(trans-4-formamidocyclohexyl)amino]-5-nitrobenzamide dihydrate]
[1]
  Maximum Concentration Achieved of Active Component 1 in water: 8.68 µg/mL
[2]; After storage at 70 °C for 7 days
  D S C analysis results: Endothermic peak caused by melting indicative of existence of crystal was recognized.
[2]; Before storage
  D S C analysis results: Endothermic peak caused by melting indicative of existence of crystal was not recognized.
[2]; after being stored at 70 °C for 7 days, DSC
  change of crystal state of Active Component 1: changed from the amorphous state to a crystal state

## COc1ccc(CNC(=O)c2cc([N+](=O)[O-])ccc2N[C@H]2CC[C@H](NC=O)CC2)cc1OC.O.O [Crystal Active Component 1, N-(3,4-dimethoxybenzyl)-2-[(trans-4-formamidocyclohexyl)amino]-5-nitrobenzamide dihydrate]
[1]
  Maximum Concentration Achieved of Active Component 1 in water: 0.38 µg/mL
